{"source": "ChEMBL document CHEMBL1123720", "about": "(J Med Chem, 1987)"}
{"species_on_record": "Rattus norvegicus", "assay": "Dose-dependent inhibition of calcium contraction in depolarized rat aortic strips", "type": "functional, organism-based", "settings": "Aorta", "units": {"IC50": "nM"}}
{"molecule": "CCOC(=O)C1=C(C)N=C(C)/C(=C(/O)OCC)C1c1cccc([N+](=O)[O-])c1SC", "note": "(configuration not stated)", "IC50": 5.8}
{"molecule": "CCOC(=O)C1=C(C)N=C(C)/C(=C(/O)OCC)C1c1cc([N+](=O)[O-])ccc1SC", "note": "(configuration not stated)", "IC50": 130}
{"molecule": "CCOC(=O)[C@H]1[C@H]2/C(=C(\\O)OCC)C(C)=N[C@]1(C)Sc1c2cccc1[N+](=O)[O-]", "IC50": 23000}
{"molecule": "CCOC(=O)[C@H]1[C@H]2/C(=C(\\O)OCC)C(C)=N[C@]1(C)Sc1ccc([N+](=O)[O-])cc12", "IC50": 3400}
{"molecule": "CCOC(=O)[C@H]1[C@H]2/C(=C(\\O)OCC)C(C)=N[C@]1(C)Sc1ccccc12", "IC50": 22000}
{"molecule": "CCOC(=O)[C@@H]1[C@H]2/C(=C(\\O)OCC)C(C)=N[C@]1(C)Sc1cc([N+](=O)[O-])ccc12", "IC50": 14000}
{"molecule": "CCOC(=O)[C@@H]1[C@H]2/C(=C(\\O)OCC)C(C)=N[C@]1(C)Sc1c2cccc1[N+](=O)[O-]", "IC50": 3700}
{"molecule": "CCOC(=O)[C@@H]1[C@H]2/C(=C(\\O)OCC)C(C)=N[C@]1(C)Sc1ccc([N+](=O)[O-])cc12", "IC50": 31}
{"molecule": "CCOC(=O)[C@@H]1[C@H]2/C(=C(\\O)OCC)C(C)=N[C@]1(C)Sc1ccccc12", "IC50": 1200}
{"molecule": "COC(=O)C1=C(C)NC(C)=C(C(=O)OC)C1c1ccccc1[N+](=O)[O-]", "note": "[NIFEDIPINE]", "IC50": 8.8}
{"molecule": "CCOC(=O)C1=C(C)NC(C)=C(C(=O)OC)C1c1cccc([N+](=O)[O-])c1", "note": "(configuration not stated) [NITRENDIPINE]", "IC50": 3.1}
{"species_on_record": "Rattus norvegicus", "assay": "Dose-dependent inhibition of calcium contraction in depolarized rat aortic strips.", "type": "functional, organism-based", "settings": "Aorta", "units": {"IC50": "nM"}}
{"molecule": "CCOC(=O)[C@H]1[C@H]2/C(=C(\\O)OCC)C(C)=N[C@]1(C)Sc1cc([N+](=O)[O-])ccc12", "IC50": "> 100000"}
